Data on 30 compounds can be found in patent US9144239B2, “Macrocyclic picolinamides as fungicides” (DOW AGROSCIENCES LLC, priority 2012, dated 2015).

In series [1] the test system is Mycosphaerella graminicola; anamorph: Septoria tritici. As to the kind of experiment: Fungicidal activity: leaf blotch of wheat (SEPTTR), wheat seedlings. The class given is in vivo. The following applies: Zymoseptoria tritici. The method in brief:
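Percent control derives from disease severity on treated versus untreated first leaves, rated 0–100% when symptoms were fully expressed on untreated plants. Yuma seedlings were inoculated with S. tritici spores either before or after spraying to run-off. The spray was acetone solution diluted 1:9 in water with 110 ppm Triton X-100. Infection took place in 100% RH dew chambers, then a 20 °C greenhouse.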

The test system of series [2] is Puccinia triticina; synonym: Puccinia recondita f. sp. tritici. The series is described as follows: Fungicidal activity: wheat brown rust (PUCCRT), wheat seedlings. Format: in vivo. The method in brief:
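Wheat (Yuma) seedlings at first-leaf stage, inoculated with Puccinia triticina spores before or after treatment, held overnight in dark dew room at 22° C, 100% RH, then greenhouse at 24° C. Acetone solutions diluted with nine volumes water containing 110 ppm Triton X-100, sprayed to run-off. Percent disease control derived from severity (0–100%) relative to untreated plants.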

Series [3] shares this test system. As to the kind of experiment: Fungicide mobility (dropline mobility test): wheat brown rust (PUCCRT). The class given is in vivo. The settings on record: 1 ug/leaf. As for the experimental part:
Evaluation of Fungicide Mobility: Wheat Brown Rust (Puccinia triticina; Synonym: Puccinia recondita f. sp. tritici; Bayer Code PUCCRT) “Yuma” wheat seedlings were used in the test. One mg of compound was dissolved in 9 μl of EC blank (emulsifiable concentrate) and 500 μl of acetone. Acetone was then evaporated overnight by leaving the vial open in a fume hood. Two milliliters of water containing 110 ppm Triton X-100 was added to each vial to prepare application solutions. A 2 μl drop of formulated material was applied to a marked line on the adaxial surface 5 cm from the leaf tip of the primary leaves. The primary leaves were kept in a horizontal position. Each treatment had 6 replicates. Plants were inoculated with PUCCRT 1-day after (1DPM) or 3-day prior to (3DCM) compound applications. When rust was fully expressed on primary leaves on control plants, the zone of treated leaves that was disease-free in the acropetal direction was measured with a ruler and converted to percent of the distance from marked line to leaf tip.

The mark [4] stands for this setting: 24 h, 100 ppm, 1 Day Protectant, wheat, read-out: Disease Control SEPTTR 1DP.
Where [5] appears, read: 72 h, 100 ppm, 3 Day Curative, wheat, read-out: Disease Control SEPTTR 3DC.
[6] abbreviates: 24 h, 100 ppm, 1 Day Protectant, wheat, read-out: Disease Control PUCCRT 1DP.
Where [7] appears, read: 72 h, 100 ppm, 3 Day Curative, wheat, read-out: Disease Control PUCCRT 3DC.
[8] abbreviates: 24 h, 1 Day Protectant Mobility, read-out: Dropline Mobility Test PUCCRT 1DPM.
The mark [9] stands for this setting: 72 h, 3 Day Curative Mobility, read-out: Dropline Mobility Test PUCCRT 3DCM.

Like-named read-outs stand apart in the source and are kept apart here.

One may read the melting point as the temperature of the solid-liquid transition. In turn, `CCCCO[C@H]1COC[C@H](N)C(=O)O[C@@H](C)[C@@H]1OCc1ccccc1.Cl` gave a melting point of 174 to 177 °C.
Still for that read-out and setting: the result for `C[C@@H]1OC(=O)[C@@H](N)COC[C@H](Oc2ccccc2)[C@H]1Oc1ccccc1.Cl` reads 227 to 229 °C; that for `C[C@@H]1OC(=O)[C@@H](N)COC[C@H](OCC2CC2)[C@H]1OCC1CC1.Cl`, 181 to 185 °C; that for `CC(C)CO[C@H]1[C@H](C)OC(=O)[C@@H](N)COC[C@@H]1Oc1ccc(F)cc1.Cl`, 197 to 200 °C.
`Cc1ccc(O[C@H]2[C@H](C)OC(=O)[C@@H](N)COC[C@@H]2Oc2ccc(C)cc2)cc1.Cl` gave a melting point of 213 to 216 °C.
Still for that read-out and setting: with `C[C@@H]1OC(=O)[C@@H](N)COC[C@H](Oc2ccccc2)[C@H]1OC1CCCC1.Cl` the figure was 217 to 219 °C; with `CCCO[C@H]1[C@H](C)OC(=O)[C@@H](N)COC[C@@H]1Oc1ccccc1.Cl`, 217 to 219 °C.
The same measure, in the same setting: with `COc1ccc(O[C@H]2COC[C@H](N)C(=O)O[C@@H](C)[C@@H]2OC(=O)C(C)C)cc1.Cl` the figure was 197 to 198 °C; with `COc1ccc(O[C@H]2[C@H](C)OC(=O)[C@@H](N)COC[C@@H]2OC(=O)C(C)C)cc1.Cl`, 207 to 208 °C; with `Cc1cc(C)cc(O[C@H]2[C@H](C)OC(=O)[C@@H](N)COC[C@@H]2Oc2cc(C)cc(C)c2)c1.Cl`, 212 °C.
Still for that read-out and setting: the result for `CC(C)CO[C@H]1COC[C@H](N)C(=O)O[C@@H](C)[C@@H]1Oc1cccc(Cl)c1.Cl` reads 168 to 169 °C.
Turning to `COc1ccnc(C(=O)N[C@@H]2COC[C@H](OCC(C)C)[C@@H](OCC(C)C)COC2=O)c1O` [Compound 10], the melting point lay within 92 to 97 °C. Moreover, the pest or weed control at 100 ppm in series [1] (setting [4]) lay within 0 to 80%. For the same compound, in series [1] (setting [5]), the pest or weed control at 100 ppm was 0 to 80%. In addition, the pest or weed control at 100 ppm in series [2] (setting [6]) lay in the range of 0 to 80%. Moreover, the pest or weed control at 100 ppm in series [2] (setting [7]) lay within 0 to 80%.
On to `COc1ccnc(C(=O)N[C@H]2COC[C@H](OCC(C)C)[C@@H](OCC(C)C)COC2=O)c1OCOC(C)=O` [Compound 13], for which the melting point lay in the range of 58 to 64 °C. In addition, in series [1] (setting [4]), the pest or weed control at 100 ppm lay within 80 to 100%. Besides, the pest or weed control at 100 ppm in series [2] (setting [6]) lay in the range of 80 to 100%. Also, the pest or weed control at 100 ppm in series [2] (setting [7]) lay in the range of 80 to 100%.
On to `COc1ccnc(C(=O)N[C@H]2COC[C@H](Oc3ccccc3)[C@@H](Oc3ccccc3)[C@H](C)OC2=O)c1O` [Compound 81, 3-hydroxy-4-methoxy-N-((3S,7S,8S,9S)-9-methyl-2-oxo-7,8-diphenoxy-1,5-dioxonan-3-yl)picolinamide], for which the pest or weed control at 100 ppm in series [1] (24 h, read-out: Disease Control SEPTTR 1DP) lay in the range of 80 to 100%; in series [1] (72 h, read-out: Disease Control SEPTTR 3DC), 80 to 100%; in series [2] (24 h, read-out: Disease Control PUCCRT 1DP), 80 to 100%; in series [2] (72 h, read-out: Disease Control PUCCRT 3DC), 80 to 100%. In addition, the pest or weed control at 1 µg/leaf in series [3] (setting [8]) is 80 to 100%; in series [3] (setting [9]) it was 0 to 80%.
`C=C(C)CO[C@@H]1[C@@H](OCC(=C)C)COC[C@H](NC(=O)OCc2ccccc2)C(=O)O[C@H]1CC` [Compound 88, benzyl ((3S,7S,8S,9S)-9-ethyl-7,8-bis((2-methylallyl)oxy)-2-oxo-1,5-dioxonan-3-yl)carbamate] came in with a melting point of 108 to 110 °C.
On the same count and under the same terms, the result for `C[C@@H]1OC(=O)[C@@H](NC(=O)OC(C)(C)C)COC[C@H](OCc2ccccc2)[C@H]1OCc1ccccc1` [Compound 93, tert-butyl ((3S,7S,8S,9S)-7,8-bis(benzyloxy)-9-methyl-2-oxo-1,5-dioxonan-3-yl)carbamate] reads 69 to 71 °C; that for `CCCCO[C@H]1[C@H](C)OC(=O)[C@@H](NC(=O)OC(C)(C)C)COC[C@@H]1OCc1ccccc1` [Compound 99], 51 to 54 °C; that for `CCCCO[C@H]1COC[C@H](NC(=O)OC(C)(C)C)C(=O)O[C@@H](C)[C@@H]1OC(=O)C(C)C` [Compound 113, (3S,6S,7S,8S)-8-butoxy-3-((tert-butoxycarbonyl)amino)-6-methyl-4-oxo-1,5-dioxonan-7-yl isobutyrate], 69 to 71 °C.
On the same count and under the same terms, the result for `C=C(C)CO[C@H]1[C@H](C)OC(=O)[C@@H](NC(=O)OCc2ccccc2)COC[C@@H]1OCC(=C)C` [Compound 126, benzyl (3S,7S,8S,9S)-9-methyl-7,8-bis(2-methylallyloxy)-2-oxo-1,5-dioxonan-3-ylcarbamate] reads 90 to 91 °C; that for `C=C(C)CO[C@H]1[C@H](C)OC[C@H](NC(=O)OCc2ccccc2)C(=O)OC[C@@H]1OCC(=C)C` [Compound 127], 79 to 81 °C.
Still for that read-out and setting: the result for `CC(C)CO[C@H]1[C@H](C)OC(=O)[C@@H](N)COC[C@@H]1OCC(C)C` [Compound 160, (3S,7S,8S,9S)-3-amino-7,8-diisobutoxy-9-methyl-1,5-dioxonan-2-one] reads 144 to 146 °C.
`C=C(C)CO[C@H]1COC[C@H](NC(=O)OCc2ccccc2)C(=O)OC[C@@H]1OCC(=C)C` [Compound 186]: the melting point is 66 to 68 °C.
The same measure, in the same setting: with `COc1ccnc(C(=O)N[C@H]2COC[C@H](OCCC(C)C)[C@@H](OCCC(C)C)[C@H](C)OC2=O)c1O` [Compound 210, N-((3S,7S,8S,9S)-7,8-bis(isopentyloxy)-9-methyl-2-oxo-1,5-dioxonan-3-yl)-3-hydroxy-4-methoxypicolinamide] the figure was 61 to 70 °C.
In the case of `COc1ccnc(C(=O)N[C@H]2COC[C@H](Oc3ccccc3)[C@@H](Oc3ccccc3)[C@H](C)OC2=O)c1OCOC(=O)C(C)C` [Compound 234], the pest or weed control at 100 ppm in series [1] (setting [4]), in series [1] (setting [5]), in series [2] (setting [6]) and in series [2] (setting [7]) was 80 to 100% each time. The pest or weed control at 1 µg/leaf in series [3] (setting [8]) lay within 80 to 100%.
With `COCCC(=O)Oc1c(OC)ccnc1C(=O)N[C@H]1COC[C@H](Oc2ccccc2)[C@@H](Oc2ccccc2)[C@H](C)OC1=O` [Compound 235], the pest or weed control at 100 ppm in series [1] (setting [4]), in series [1] (setting [5]), in series [2] (setting [6]) and in series [2] (setting [7]) was 80 to 100% throughout. In series [3] (setting [8]), the pest or weed control at 1 µg/leaf was in the range of 0 to 80%.
With `COc1ccnc(C(=O)N[C@H]2COC[C@H](Oc3ccccc3)[C@@H](Oc3ccccc3)[C@H](C)OC2=O)c1OC(C)=O` [Compound 236], the pest or weed control at 100 ppm in series [1] (setting [4]), in series [1] (setting [5]), in series [2] (setting [6]) and in series [2] (setting [7]) was 80 to 100% in each case. Moreover, the pest or weed control at 1 µg/leaf in series [3] (setting [8]) is 0 to 80%.
With `COCCC(=O)Oc1c(OC)ccnc1C(=O)N[C@H]1COC[C@H](OCC(C)C)[C@@H](OCC(C)C)[C@H](C)OC1=O` [Compound 237, 2-(((3S,7S,8S,9S)-7,8-diisobutoxy-9-methyl-2-oxo-1,5-dioxonan-3-yl)carbamoyl)-4-methoxypyridin-3-yl 3-methoxypropanoate], the pest or weed control at 100 ppm in series [1] (setting [4]), in series [1] (setting [5]), in series [2] (setting [6]) and in series [2] (setting [7]) was 80 to 100% each time. For the same compound, the pest or weed control at 1 µg/leaf in series [3] (setting [8]) and in series [3] (setting [9]) was 80 to 100% throughout.
Consider `COc1ccnc(C(=O)N[C@H]2COC[C@H](OCC(C)C)[C@@H](OCC(C)C)[C@H](C)OC2=O)c1OC(C)=O` [Compound 238], for which the pest or weed control at 100 ppm in series [1] (setting [4]), in series [1] (setting [5]), in series [2] (setting [6]) and in series [2] (setting [7]) was 80 to 100% throughout. Further, the pest or weed control at 1 µg/leaf in series [3] (setting [8]) and in series [3] (setting [9]) was 80 to 100% each time.
`CC(C)CO[C@H]1[C@H](C)OC(=O)[C@@H](N(C(=O)OC(C)(C)C)C(=O)OC(C)(C)C)COC[C@@H]1Oc1ccc(F)cc1` [Compound 246] showed a melting point of 108 °C.
Still for that read-out and setting: the result for `C[C@@H]1OC(=O)[C@@H](N(C(=O)OC(C)(C)C)C(=O)OC(C)(C)C)COC[C@H](O)[C@H]1Oc1ccccc1` [Compound 249] reads 110 to 112 °C.
